Source: US6204282A, “Benzimidazole compounds that are vitronectin receptor antagonists” (Schering Corporation, priority 1999, dated 2001)

molecular target: αllbβ3 receptor (Homo sapiens, UniProt P05106+P08514); test: similar competitive assay with purified αllbβ3 receptor and 125I-echistatin (specificity index versus αvβ3); type: binding; details: IC50 αllbβ3 / IC50 αvβ3
From the text: The specificity index, which is a measure of the relative binding affinity for αvβ3 versus αllbβ3, may be determined by dividing the IC50 value for αllbβ3by the IC50 value for αvβ3.

Sequence of αllbβ3 receptor (P08514 32-1039): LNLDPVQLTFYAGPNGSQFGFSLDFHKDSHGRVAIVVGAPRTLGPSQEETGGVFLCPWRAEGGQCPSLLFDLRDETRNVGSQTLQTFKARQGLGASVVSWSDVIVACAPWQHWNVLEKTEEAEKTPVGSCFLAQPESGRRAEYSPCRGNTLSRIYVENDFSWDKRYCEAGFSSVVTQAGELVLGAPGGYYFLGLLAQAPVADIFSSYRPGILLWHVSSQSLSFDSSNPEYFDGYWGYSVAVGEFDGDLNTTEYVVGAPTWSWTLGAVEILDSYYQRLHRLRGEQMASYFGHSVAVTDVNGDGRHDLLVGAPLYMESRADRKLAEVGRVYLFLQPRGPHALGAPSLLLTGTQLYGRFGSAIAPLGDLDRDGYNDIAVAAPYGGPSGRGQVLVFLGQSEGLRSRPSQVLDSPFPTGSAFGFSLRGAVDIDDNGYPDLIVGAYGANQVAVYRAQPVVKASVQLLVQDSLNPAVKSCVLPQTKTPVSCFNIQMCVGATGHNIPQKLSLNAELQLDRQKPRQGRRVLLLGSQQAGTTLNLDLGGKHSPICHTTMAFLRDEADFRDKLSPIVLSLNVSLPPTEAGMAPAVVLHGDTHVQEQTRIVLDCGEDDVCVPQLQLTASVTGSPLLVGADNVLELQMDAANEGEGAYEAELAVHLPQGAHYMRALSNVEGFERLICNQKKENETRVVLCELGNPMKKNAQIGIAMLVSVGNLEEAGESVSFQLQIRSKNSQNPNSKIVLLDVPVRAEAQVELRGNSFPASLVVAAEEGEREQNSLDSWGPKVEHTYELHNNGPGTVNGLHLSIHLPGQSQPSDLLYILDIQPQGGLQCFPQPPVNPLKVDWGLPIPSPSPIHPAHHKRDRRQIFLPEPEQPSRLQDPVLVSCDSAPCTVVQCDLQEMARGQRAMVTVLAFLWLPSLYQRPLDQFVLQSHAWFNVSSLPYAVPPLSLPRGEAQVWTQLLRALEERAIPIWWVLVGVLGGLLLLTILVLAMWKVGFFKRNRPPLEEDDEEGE
Sequence of αllbβ3 receptor (P05106 27-788): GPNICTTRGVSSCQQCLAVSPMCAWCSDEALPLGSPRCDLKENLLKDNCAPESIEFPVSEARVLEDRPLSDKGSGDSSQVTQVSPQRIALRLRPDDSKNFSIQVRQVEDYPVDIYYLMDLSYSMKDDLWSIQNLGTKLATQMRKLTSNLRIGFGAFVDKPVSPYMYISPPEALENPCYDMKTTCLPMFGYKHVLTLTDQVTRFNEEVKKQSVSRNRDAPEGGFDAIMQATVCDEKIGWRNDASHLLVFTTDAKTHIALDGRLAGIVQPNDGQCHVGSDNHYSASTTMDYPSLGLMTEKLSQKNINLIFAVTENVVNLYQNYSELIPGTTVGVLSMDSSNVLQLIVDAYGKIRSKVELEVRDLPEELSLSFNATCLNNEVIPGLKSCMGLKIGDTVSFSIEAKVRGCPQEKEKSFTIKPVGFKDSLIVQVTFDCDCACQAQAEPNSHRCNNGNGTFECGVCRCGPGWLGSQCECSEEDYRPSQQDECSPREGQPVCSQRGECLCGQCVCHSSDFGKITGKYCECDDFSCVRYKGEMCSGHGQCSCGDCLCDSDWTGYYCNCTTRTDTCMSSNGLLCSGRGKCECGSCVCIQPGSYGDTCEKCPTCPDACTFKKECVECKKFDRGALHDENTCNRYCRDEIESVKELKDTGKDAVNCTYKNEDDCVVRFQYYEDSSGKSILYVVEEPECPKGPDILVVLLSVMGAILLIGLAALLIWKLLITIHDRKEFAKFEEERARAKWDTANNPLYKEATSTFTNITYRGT

Row | SPECIFICITY αIIb β3/αvβ3 (specificity index) | SMILES
1 | 0.4 | O=C(O)CC(NC(=O)c1ccc(CNCc2nc3ccccc3[nH]2)cc1)c1ccccc1 (stereo not drawn) [Example 5-65]
2 | 26 | O=C(N[C@@H](CNC(=O)c1ccc(CN(Cc2nc3ccccc3[nH]2)C(=O)C2CC2c2ccccc2)cc1)C(=O)O)OCc1ccccc1 (stereo partly drawn) [Example 5-22]
3 | 413 | CCOC(=O)CCNC(=O)N(Cc1ccc(C(=O)NC[C@H](NC(=O)OCc2ccccc2)C(=O)O)cc1)Cc1nc2ccccc2[nH]1 [Example 5-54]
4 | 288 | O=C(N[C@@H](CNC(=O)c1ccc(CN(Cc2nc3ccccc3[nH]2)C(=O)NC23CC4CC(CC(C4)C2)C3)cc1)C(=O)O)OCc1ccccc1 [Example 5-40]
5 | 0.5 | COCC(=O)N(Cc1ccc(C(=O)NC(CC(=O)O)c2ccccc2)cc1)Cc1nc2ccccc2[nH]1 (stereo not drawn) [Example 5-67]
6 | 38 | CC(C)C(=O)N(Cc1ccc(C(=O)NC[C@H](NC(=O)OCc2ccccc2)C(=O)O)cc1)Cc1nc2ccccc2[nH]1 [Example 5-13]
7 | 117 | O=C(N[C@@H](CNC(=O)c1ccc(CN(Cc2nc3ccccc3[nH]2)C(=O)CCC2CCCC2)cc1)C(=O)O)OCc1ccccc1 [Example 5-14]
8 | 805 | CCOC(=O)[C@H](C)NC(=O)N(Cc1ccc(C(=O)NC[C@H](NC(=O)OCc2ccccc2)C(=O)O)cc1)Cc1nc2ccccc2[nH]1 [Example 5-50]
9 | 151 | CCOc1ccc(NC(=O)N(Cc2ccc(C(=O)NC[C@H](NC(=O)OCc3ccccc3)C(=O)O)cc2)Cc2nc3ccccc3[nH]2)cc1 [Example 5-32]
10 | 1065 | COc1ccc(NC(=S)N(Cc2ccc(C(=O)NC[C@H](NC(=O)OCc3ccccc3)C(=O)O)cc2)Cc2nc3ccccc3[nH]2)cc1 [Example 5-46]
11 | 52 | COCCC(=O)N(Cc1ccc(C(=O)NC[C@H](NC(=O)OCc2ccccc2)C(=O)O)cc1)Cc1nc2ccccc2[nH]1 [Example 5-25]
12 | 419 | COCC(=O)N(Cc1ccc(C(=O)NC[C@H](NC(=O)OC(C)(C)C)C(=O)O)cc1)Cc1nc2ccccc2[nH]1 [Example 5-62]
13 | 91 | CCOCC(=O)N(Cc1ccc(C(=O)NC[C@H](NC(=O)OCc2ccccc2)C(=O)O)cc1)Cc1nc2ccccc2[nH]1 [Example 5-26]
14 | 514 | COCCNC(=S)N(Cc1ccc(C(=O)NC[C@H](NC(=O)OCc2ccccc2)C(=O)O)cc1)Cc1nc2ccccc2[nH]1 [Example 5-56]
15 | 14 | CN(C)CC(=O)N(Cc1ccc(C(=O)NC[C@H](NC(=O)OCc2ccccc2)C(=O)O)cc1)Cc1nc2ccccc2[nH]1 [Example 5-24]
16 | 8.0 | O=C(NC[C@H](NS(=O)(=O)c1ccccc1)C(=O)O)c1ccc(CN(Cc2nc3ccccc3[nH]2)C(=O)NC2CCCCC2)cc1 [Example 5-81]
17 | 399 | O=C(N[C@@H](CNC(=O)c1ccc(CN(Cc2nc3cc(Cl)ccc3[nH]2)C(=O)NC2CCCCC2)cc1)C(=O)O)OCc1ccccc1 [Example 5-94]
18 | 1.43 | O=C(N[C@H](CNC(=O)c1ccc(CNCc2nc3ccccc3[nH]2)cc1)C(=O)O)OCc1ccccc1 [Example 5-57]
19 | 6.7 | CC(=O)N(Cc1ccc(C(=O)NC[C@H](NC(=O)OCc2ccccc2)C(=O)O)cc1)C(C)c1nc2ccccc2[nH]1 (stereo partly drawn) [Example 5-76]

Row | SPECIFICITY αIIb β3/αvβ3 (specificity index) | SMILES
20 | 1223 | CCCCOC(=O)N[C@@H](CNC(=O)c1ccc(CN(Cc2nc3ccccc3[nH]2)C(=O)NC(C)(C)C)cc1)C(=O)O [Example 5-85]
21 | 65 | O=C(N[C@H](CNC(=O)c1ccc(CN(Cc2nc3ccccc3[nH]2)C(=O)CCc2ccccc2)cc1)C(=O)O)OCc1ccccc1 [Example 5-59]
22 | 203 | O=C(N[C@@H](CNC(=O)c1ccc(CN(Cc2nc3ccccc3[nH]2)C(=O)Nc2cccc3ccccc23)cc1)C(=O)O)OCc1ccccc1 [Example 5-37]
23 | 2028 | CCOC(=O)[C@H](CCSC)NC(=O)N(Cc1ccc(C(=O)NC[C@H](NC(=O)OCc2ccccc2)C(=O)O)cc1)Cc1nc2ccccc2[nH]1 [Example 5-48]
24 | 421 | CC(C)(C)NC(=O)N(Cc1ccc(C(=O)NC[C@H](NC(=O)OCc2ccccc2)C(=O)O)cc1)Cc1nc2ccccc2[nH]1 [Example 5-34]
25 | 11 | COCC(=O)N(Cc1ccc(C(=O)NC[C@H](NS(=O)(=O)c2ccccc2)C(=O)O)cc1)Cc1nc2ccccc2[nH]1 [Example 5-80]
26 | 1689 | CCCCOC(=O)N[C@@H](CNC(=O)c1ccc(CN(Cc2nc3ccccc3[nH]2)C(=O)Nc2ccccc2)cc1)C(=O)O [Example 5-83]
27 | 223 | CCCNC(=O)N(Cc1ccc(C(=O)NC[C@H](NC(=O)OCc2ccccc2)C(=O)O)cc1)Cc1nc2ccccc2[nH]1 [Example 5-39]
28 | 899 | O=C(N[C@@H](CNC(=O)c1ccc(CN(Cc2nc3ccccc3[nH]2)C(=O)CCc2ccccc2)cc1)C(=O)O)OCc1ccccc1 [Example 5-16]
29 | 0.5 | COCC(=O)N(CCc1nc2ccccc2[nH]1)Cc1ccc(C(=O)NCC(NC(=O)OCc2ccccc2)C(=O)O)cc1 (stereo not drawn) [Example 5-72]
30 | 1094 | CCCCOC(=O)N[C@@H](CNC(=O)c1ccc(CN(Cc2nc3ccccc3[nH]2)C(=O)N[C@@H](C)C(=O)OCC)cc1)C(=O)O [Example 5-89]
31 | 0.4 | O=C(O)CC(NC(=O)c1ccc(CN(Cc2nc3ccccc3[nH]2)C(=O)CCC2CCCC2)cc1)c1ccccc1 (stereo not drawn) [Example 5-69]
32 | 0.4 | CC(=O)N(Cc1ccc(C(=O)NC(CC(=O)O)c2ccccc2)cc1)Cc1nc2ccccc2[nH]1 (stereo not drawn) [Example 5-66]
33 | 0.7 | O=C(NC(CNC(=O)c1ccc(CN(CCc2nc3ccccc3[nH]2)C(=O)CCc2ccccc2)cc1)C(=O)O)OCc1ccccc1 (stereo not drawn) [Example 5-73]
34 | 775 | CC(C)NC(=O)N(Cc1ccc(C(=O)NC[C@H](NC(=O)OCc2ccccc2)C(=O)O)cc1)Cc1nc2cc(Cl)ccc2[nH]1 [Example 5-95]
35 | 1697 | CCCCOC(=O)N[C@@H](CNC(=O)c1ccc(CN(Cc2nc3ccccc3[nH]2)C(=O)N[C@H](C(=O)OCC)C(C)C)cc1)C(=O)O [Example 5-90]
36 | 33.9 | CC(c1nc2ccccc2[nH]1)N(Cc1ccc(C(=O)NC[C@H](NC(=O)OCc2ccccc2)C(=O)O)cc1)C(=O)CCc1ccccc1 (stereo partly drawn) [Example 5-78]
37 | 1183 | CCCCOC(=O)N[C@@H](CNC(=O)c1ccc(CN(Cc2nc3ccccc3[nH]2)C(=O)Nc2ccc(C(=O)OCC)cc2)cc1)C(=O)O [Example 5-91]
38 | 15 | CCOC(=O)N(Cc1ccc(C(=O)NC[C@H](NC(=O)OCc2ccccc2)C(=O)O)cc1)Cc1nc2ccccc2[nH]1 [Example 5-20]

Row | SMILES | SPECIFICITY αIIb β3/αvβ3 (specificity index)
39 | CCCCOC(=O)N[C@@H](CNC(=O)c1ccc(CN(Cc2nc3ccccc3[nH]2)C(=O)NCC(=O)O)cc1)C(=O)O [Example 5-97, N^3-[4-[(Benzimidazol-2-yl)methyl][[(carboxymethyl)amino]carbonyl]aminomethylbenzoyl]-N^2-(n-butoxycarbonyl)-L-2,3-diaminopropionic acid] | 2600
